Counter-ions that a name gives are not always drawn.
What was measured:
[1] = system: Jurkat T cells; test: Cytokine secretion in T cells (ELISA); format: cell-based, human; details: PHA/PMA induction, culture medium
[2] = system: THP-1 derived macrophages; test: Cytokine secretion in macrophages (ELISA); format: cell-based, human; details: IFN-γ/LPS induction, culture medium
[3] = target: CRAC channel (Homo sapiens, UniProt Q96D31); test: CRAC channel activity / SOCE by Fura 2-AM cytosolic Ca2+ imaging in HEK293T cells; format: cell-based; parameters: endogenous in cells; host or cells: HEK293T; details: 10 μM, 1 μM thapsigargin then 2 mM Ca2+
Description: CRAC channel activity was evaluated by applying 1 μM thapsigargin (Thap.) in a calcium-free solution to deplete the endoplasmic reticulum calcium store, followed by the reintroduction of 2 mM Ca^2+ in an external solution. The concentration of cytosolic calcium ions increases as calcium flows through the CRAC channel, leading to the second peak in cytosolic calcium waves. […] Each bar represents the mean value derived from 47 to 103 cells. […] Each bar represents the mean value derived from 83 to 176 cells. […] Further analyses are presented in FIG. 1I and FIG. 1J, where the second peak of each wave and rate of entry were analyzed. Each bar represents the mean value derived from 72 to 108 cells. […] In all the graphs, each bar represents mean±SEM and *, **, and *** denote p-value <0.05, 0.01, and 0.001, respectively.
Cells were then washed and incubated with the same solution in addition to the supplement of Fura 2-AM for another 15 minutes for fully de-esterification. […] 1 μM thapsigargin was added to induce endoplasmic reticulum (ER) calcium store depletion followed by applying 2 mM calcium solution to assess the activation of calcium release-activated calcium (CRAC) channels. Cells were alternately excited at 340 and 380 nm, and images were acquired every 2 seconds. […] All the images were analyzed by using IGOR Pro software. […]

[4] = target: T1, DDR2 (Homo sapiens, UniProt Q16832); test: DDR2 activation (anti-phosphotyrosine Western blot) in HEK293T cells overexpressing DDR2, collagen-stimulated; format: cell-based; details: 10 μM pretreatment 30 minutes, then 50 μg/mL type I collagen 12 hours
T1 construct: expressed in transfected cells; host or cells: HEK293T
T1 sequence (Q16832 22-855): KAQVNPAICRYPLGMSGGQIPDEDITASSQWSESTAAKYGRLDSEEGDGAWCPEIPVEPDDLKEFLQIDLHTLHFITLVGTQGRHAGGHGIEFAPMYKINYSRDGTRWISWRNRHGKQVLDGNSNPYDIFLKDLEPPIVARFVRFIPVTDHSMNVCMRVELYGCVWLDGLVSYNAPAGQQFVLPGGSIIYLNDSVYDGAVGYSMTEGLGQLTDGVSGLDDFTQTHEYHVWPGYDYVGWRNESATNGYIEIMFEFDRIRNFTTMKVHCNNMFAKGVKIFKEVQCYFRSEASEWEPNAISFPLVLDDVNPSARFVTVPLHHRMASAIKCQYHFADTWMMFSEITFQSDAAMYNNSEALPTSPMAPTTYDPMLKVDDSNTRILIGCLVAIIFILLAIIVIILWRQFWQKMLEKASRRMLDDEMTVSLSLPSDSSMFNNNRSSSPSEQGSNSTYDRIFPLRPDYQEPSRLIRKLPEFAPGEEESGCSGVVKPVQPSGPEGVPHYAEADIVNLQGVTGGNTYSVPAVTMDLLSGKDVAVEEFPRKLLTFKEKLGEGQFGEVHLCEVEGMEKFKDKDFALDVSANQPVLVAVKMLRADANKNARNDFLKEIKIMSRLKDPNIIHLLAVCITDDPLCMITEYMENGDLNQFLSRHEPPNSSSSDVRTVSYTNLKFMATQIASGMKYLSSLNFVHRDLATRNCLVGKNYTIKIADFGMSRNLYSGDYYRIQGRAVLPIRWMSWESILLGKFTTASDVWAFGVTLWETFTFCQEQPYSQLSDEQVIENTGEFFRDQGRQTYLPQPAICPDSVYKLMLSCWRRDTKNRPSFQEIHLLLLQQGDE
Description: FIG. 1A, FIG. 1B, FIG. 1C, FIG. 1D, FIG. 1E, FIG. 1F, FIG. 1G, FIG. 1H, FIG. 1I, FIG. 1J, FIG. 1K, FIG. 1L, FIG. 1M, and FIG. 1N show WRG-28 and atovaquone (Av) suppress the activation of DDR2 and calcium release-activated calcium (CRAC) channel. FIG. 1A indicates HEK293T cells were transiently overexpressed with DDR2 and then pretreated with different compounds (10 μM), including WRG-28, Av, donepezil hydrochloride (Dh), terazosin hydrochloride (Th), verapamil and flecainide for 30 minutes. Verapamil and flecainide were used as negative control here. After that, cells were treated with 50 μg/mL type I collagen for 12 hours. Cell lysates were harvested and subjected to Western blot analysis with antibodies against phosphotyrosine antibody (clone 4G10), DDR2, and β-actin. […] CRAC channel activity was evaluated by applying 1 μM thapsigargin (Thap.) in a calcium-free solution to deplete the endoplasmic reticulum calcium store, followed by the reintroduction of 2 mM Ca^2+ in an external solution. […] Further analyses are presented in FIG. 1I and FIG. 1J, where the second peak of each wave and rate of entry were analyzed. […] The Orai1 and Stim1 puncta in HEK293T cells overexpressed with CFP-Orai1/Stim1-mCherry were assessed. […]
Cell lysates were harvested in RIPA buffer (150 mM NaCl, 1 mM EGTA, 50 mM Tris pH 7.4, 10% glycerol, 1% Triton X-100, 1% sodium deoxycholate, 0.1% SDS, and protease inhibitor cocktail) and collected from culture dish with cell scrapers. […] The protein expression levels were assessed by specific primary antibodies, including antibodies against phosphotyrosine (clone 4G10; Millipore), DDR2 (R&D), α-SMA (Sigma), Collagen 1a1 (Boster), E-cadherin (BD Biosciences), SGLT2 (Proteintech), NHE1 (Novus) and β-actin (Clone C4, Millipore), followed by incubating with secondary antibodies conjugated with HRP and detected by ECL kit (Thermo Scientific).
To examine the impact of these compounds on DDR2 activation, HEK293T cells overexpressing DDR2 were pretreated with various compounds. […] The activation of DDR2 was evaluated using an anti-phosphotyrosine antibody. […]

[5] = system: BLM-induced pulmonary fibrosis; test: Bleomycin-induced lung fibrosis mouse model; format: in vivo; details: 14 days, Nintedanib 60 mg/kg/day, WRG-28 5 mg/kg/day, Av 5 mg/kg/day
Excerpt: A Bleomycin (BLM)-induced lung fibrosis mouse model was used, and the timelines of operation and drug delivery are depicted in FIG. 11A. […] The hydroxyproline content, serving as a marker of collagen deposition, was extracted from the right lobe and analyzed; the results are shown in FIG. 11C. FIG. 11D depicts histological analysis derived from the left lobe, quantifying the fibrotic area through staining with Masson's Trichrome and Picrosirius red, respectively.
8-to-10-week-old male WT (C57BL/6) mice received intratracheal instillation of bleomycin (bleocin; Nippon Kayaku) at the dose of 3 mg/kg diluted in PBS or PBS only (sham). To study fibrosis, lung samples were collected on day 21 for further analysis.
Lung function was assessed using the flexi Vent system (Scireq, Montreal, QC, Canada). Mice were tracheostomized and ventilated at a rate of 150 breaths/min, tidal volume of 10 ml/kg, and a positive end-expiratory pressure (PEEP) of 2-3 cmH2O. A deep inflation perturbation was used to estimate the inspiratory capacity (IC). Pressure-Volume loops were generated by constant increasing pressure, followed by regular decreasing pressure. Other lung function parameters like resistance, compliance, and elastance were measured by using SnapShot-150.
Levels of hydroxyproline in lung tissues were measured using the Hydroxyproline Colorimetric Assay kit (BioVision, Milpitas, CA, USA). Briefly, 10 mg of frozen right middle lobes homogenized in 100 μL of hydrochloric acid (HCl, 12 N), and hydrolyzed at 120° C. for 3 h. Then, 10 μL of individual samples were used to quantify the absorbance at 560 nm. Hydroxyproline content was presented in μg per lobe.
Mouse left lungs were fixed overnight in 4% paraformaldehyde (PFA), embedded in paraffin, and sectioned in 5 μm thickness for picrosirius red (Abcam, Cambridge, UK) and Masson's trichrome staining (Sigma Aldrich, MO, USA). Measurement of fibrotic area was quantified using ImageJ software (NIH, http://rsbweb.nih.gov/ij/).
The efficacy of WRG-28 and Av in treating pulmonary fibrosis was examined in vivo using a BLM-induced pulmonary fibrosis mouse model for evaluation. 50 μL of Bleomycin (BLM, 3 mg/kg) or PBS were introduced by intratracheal instillation on day 0 to induce fibrosis or serve as the control group, respectively. This was followed by the administration of various compounds for 14 days (Nintedanib: 60 mg/kg/day, WRG-28:5 mg/kg/day, Av: 5 mg/kg/day). Lung function evaluation was conducted on day 21 (FIG. 11A). Nintedanib, an FDA-approved drug for idiopathic pulmonary fibrosis (IPF) treatment, was used as the positive control. The results of the lung function evaluation are depicted in FIG. 11B. […] The degree of these changes can be reversed through treatment with Nintedanib, WRG-28 or Av. […] Histological analysis was conducted through staining techniques to quantify the fibrotic area.

CRAC channel, sequence (Q96D31 whole entry): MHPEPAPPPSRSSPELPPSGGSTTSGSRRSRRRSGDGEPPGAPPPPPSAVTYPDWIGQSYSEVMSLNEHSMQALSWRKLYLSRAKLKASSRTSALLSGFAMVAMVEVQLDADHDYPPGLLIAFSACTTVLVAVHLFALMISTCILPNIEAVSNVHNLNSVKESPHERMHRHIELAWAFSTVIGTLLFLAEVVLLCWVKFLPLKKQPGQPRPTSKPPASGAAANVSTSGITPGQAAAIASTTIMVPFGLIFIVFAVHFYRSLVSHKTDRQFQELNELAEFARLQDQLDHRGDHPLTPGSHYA

## Cc1cccc(F)c1C(=O)Nc1cnc(-c2cc3c(cc2Cl)OC(F)(F)O3)cn1 [CM-4620]
[1]
  secretion of IL-2 in T cells: significantly reduced
[2]
  secretion of IL-2 in macrophages: significantly reduced
  secretion of IL-6 in macrophages: significantly reduced
  secretion of TNF-β in macrophages: significantly reduced

## COc1cc2c(cc1OC)C(=O)C(CC1CCN(Cc3ccccc3)CC1)C2 (stereo not shown) [Dh, donepezil hydrochloride]
[3]
  second peak and rate of SOCE: did not show significant effects
[4]
  activation of DDR2 (phosphotyrosine): significantly reduced

## COC(=O)c1ccc2c(c1)NC(=O)/C2=C(\Nc1ccc(N(C)C(=O)CN2CCN(C)CC2)cc1)c1ccccc1 [Nintedanib]
[5]; day 21
  BLM-induced changes in lung function (capacity, compliance, resistance, elastance): reversed
[5]; left lobe
  fibrotic area (Masson's trichrome and Picrosirius Red staining): effectively reduces
[5]; right lobe
  hydroxyproline content (degree of fibrosis): inhibits the progression of fibrosis

## COc1cc2nc(N3CCN(C(=O)C4CCCO4)CC3)nc(N)c2cc1OC (stereo not shown) [Th, terazosin hydrochloride]
[4]
  activation of DDR2 (phosphotyrosine): significantly reduced

Reference: patent publication US20250339443A1, “METHOD FOR TREATING OR PREVENTING CALCIUM RELEASE-ACTIVATED CALCIUM CHANNEL OR DISCOIDIN DOMAIN RECEPTOR 2 RELATED DISORDERS OR CONDITIONS” (LumiSTAR Biotechnology, Inc., priority 2023, published 2025)
